Results published in patent US10995101B2, “2-oxo-thiazole derivatives as A2A inhibitors and compounds for use in the treatment of cancers” (iTeos Therapeutics SA, priority 2017, dated 2021).

Assays:
in vitro = conditions: human, Caco-2, pH 7.4
A2A receptor = A2A receptor (Homo sapiens, UniProt P29274); assay: Modulation of pCREB in human immune cells; type: cell-based; set-up: endogenous in cells; host or cells: human CD3+ T cells isolated from venous blood of healthy volunteers; conditions: read-out: IC50 of pCREB inhibition
A2A receptor, sequence (P29274 whole entry): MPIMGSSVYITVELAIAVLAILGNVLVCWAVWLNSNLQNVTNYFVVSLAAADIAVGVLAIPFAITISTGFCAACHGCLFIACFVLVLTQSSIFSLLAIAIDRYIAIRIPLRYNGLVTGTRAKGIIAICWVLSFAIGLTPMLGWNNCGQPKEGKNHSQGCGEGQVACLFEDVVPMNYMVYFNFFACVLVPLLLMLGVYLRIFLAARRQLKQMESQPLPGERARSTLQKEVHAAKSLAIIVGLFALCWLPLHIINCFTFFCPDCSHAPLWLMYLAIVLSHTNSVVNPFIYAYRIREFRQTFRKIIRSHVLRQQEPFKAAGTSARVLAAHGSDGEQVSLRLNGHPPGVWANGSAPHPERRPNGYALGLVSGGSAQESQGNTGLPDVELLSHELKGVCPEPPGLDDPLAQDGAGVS
Experimental: The A2A receptor is known to mediate CREB phosphorylation.
Venous blood from healthy volunteers, all of whom signed an informed consent approved by the Ethics Committee (FOR-UIC-BV-050-01-01 ICF_HBS_HD Version 5.0), was obtained via ImmuneHealth (Centre Hospitalier Universitaire Tivoli, La Louviere, Belgium). […] All dilutions were prepared in RPMI1640 medium (with UltraGlutamine; Lonza, Verviers, Belgium), and cells were incubated with compounds in a 37° C. humidified tissue culture incubator with 5% CO2. After stimulation, cells were fixed and permeabilized, followed by intracellular staining using mouse anti-human pCREB antibodies (Clone J151-21; BD Biosciences) at room temperature. Data were acquired using an LSRFortessa flow cytometer (BD Biosciences) and analyzed using FlowJo software (FlowJo, LLC, Ashland, Oreg.).

NC(=O)COc1cc(N2CCN(CCn3c(=O)sc4c3nc(N)n3nc(-c5ccco5)nc43)CC2)c(F)cc1F [Compound 4, 2-(5-(4-(2-(5-amino-8-(furan-2-yl)-2-oxothiazolo[5,4-e][1,2,4]triazolo [1,5-c]pyrimidin-3(2H)-yl)ethyl)piperazin-1-yl)-2,4-difluorophenoxy)acetamide]
efflux ratio at 120 min, 2 μM (in vitro): 123
IC50 (A2A receptor): 20 nM
